Laboratory results reported in patent US10597388B2, “Pyridazinone herbicides” (FMC CORPORATION, priority 2014, dated 2020).

Tests used:
Test in all cases: Test D controlled growth environment herbicide test, pre- and postemergence
Type in all cases: in vivo
[1] = tested on: mustard, wild (wild mustard, Sinapis arvensis)
From the text: (§1) Seeds of plant species selected from bluegrass (annual bluegrass, Poa annua), blackgrass (Alopecurus myosuroides), Canada thistle (Cirsium arvense), canarygrass (Phalaris minor), chickweed (common chickweed, Stellaria media), geranium, cutleaf (cutleaf geranium, Geranium dissectum), galium (catchweed bedstraw, Galium aparine), bromegrass, downy (downy bromegrass, Bromus tectorum), field poppy (Papaver rhoeas), field violet (Viola arvensis), foxtail, green (green foxtail, Setaria viridis), deadnettle (henbit deadnettle, Lamium amplexicaule), ryegrass, Italian (Italian ryegrass, Lolium multiflorum), kochia (Kochia scoparia), lambsquarters (Chenopodium album), oilseed rape (Brassica napus), pigweed (Amaranthus retroflexus), chamomile (scentless chamomile, Matricaria inodora), Russian thistle (Salsola kali), speedwell (bird's-eye speedwell, Veronica persica), barley, spring (spring barley, Hordeum vulgare), wheat, spring (spring wheat, Triticum aestivum), buckwheat, wild (wild buckwheat, Polygonum convolvulus), mustard, wild (wild mustard, Sinapis arvensis), oat, wild (wild oat, Avena fatua), radish, wild (wild radish, Raphanus raphanistrum), windgrass (Apera spica-venti), barley, winter (winter barley, Hordeum vulgare), and wheat, winter (winter wheat, Triticum aestivum) were planted into a silt loam soil and treated preemergence with test chemicals formulated in a non-phytotoxic solvent mixture which included a surfactant.
(§2) At the same time, these species were planted in pots containing Redi-Earth® planting medium (Scotts Company, 14111 Scottslawn Road, Marysville, Ohio 43041) comprising spaghnum peat moss, vermiculite, wetting agent and starter nutrients and treated with postemergence applications of the test chemicals formulated in the same manner. Plants ranged in height from 2 to 18 cm (1- to 4-leaf stage). Treated plants and controls were maintained in a controlled growth environment for 14 to 21 d after which time all species were compared to controls and visually evaluated. Plant response ratings, summarized in Table D, are based on a scale of 0 to 100 where 0 is no effect and 100 is complete control. A dash (-) response means no test result.

[2] = tested on: pigweed (Amaranthus retroflexus)
From the text: as §1, §2

[3] = tested on: blackgrass (Alopecurus myosuroides)
From the text: as §1, §2

[4] = tested on: chickweed (common chickweed, Stellaria media)
From the text: as §1, §2

[5] = tested on: lambsquarters (Chenopodium album)
From the text: as §1, §2

[6] = tested on: field poppy (Papaver rhoeas)
From the text: as §1, §2

[7] = tested on: wheat, winter (winter wheat, Triticum aestivum)
From the text: as §1, §2

[8] = tested on: oat, wild (wild oat, Avena fatua)
From the text: as §1, §2

[9] = tested on: foxtail, green (green foxtail, Setaria viridis)
From the text: as §1, §2

[10] = tested on: wheat, spring (spring wheat, Triticum aestivum)
From the text: as §1, §2

[11] = tested on: bromegrass, downy (downy bromegrass, Bromus tectorum)
From the text: as §1, §2

[12] = tested on: windgrass (Apera spica-venti)
From the text: as §1, §2

[13] = tested on: chamomile (scentless chamomile, Matricaria inodora)
From the text: as §1, §2

[14] = tested on: barley, winter (winter barley, Hordeum vulgare)
From the text: as §1, §2

[15] = Postemergence, 31 g ai/ha, scale 0 to 100 (0 no effect, 100 complete control)
[16] = Postemergence, 125 g ai/ha, visual rating on scale 0 (no effect) to 100 (complete control), 14 to 21 d
[17] = Postemergence, 250 g ai/ha, scale 0 to 100 (0 no effect, 100 complete control)
[18] = Preemergence, 62 g ai/ha, scale 0 to 100 (0 no effect, 100 complete control)
[19] = Preemergence, 125 g ai/ha, scale 0 to 100 (0 no effect, 100 complete control)
[20] = Preemergence, 250 g ai/ha, scale 0 to 100, 0 no effect, 100 complete control
[21] = postemergence, 62 g ai/ha, scale 0 to 100, 0 no effect, 100 complete control

Cc1cc(C)c2sc(C)c(-c3c(O)c(C)nn(C)c3=O)c2c1 [Compound 2, 5-hydroxy-2,6-dimethyl-4-(2,5,7-trimethylbenzo[b]thien-3-yl)-3(2H)-pyridazinone]
0: Plant response rating (scale of 0 to 100), Mustard, Wild ([1]; Preemergence, 31 g ai/ha) | Plant response rating, Mustard, Wild [1, 18] | Wheat, Winter plant response rating [7, 15] | Plant response rating (scale of 0 to 100), Wheat, Winter ([7]; Preemergence, 31 g ai/ha) | Plant response rating, Wheat, Winter [7, 18] | Plant response rating, Wheat, Winter [7, 19] | Plant response rating, Wheat, Winter [7, 21] | Wheat, Spring plant response rating [10, 15] | Plant response rating (scale of 0 to 100), Wheat, Spring ([10]; Preemergence, 31 g ai/ha) | Plant response rating, Wheat, Spring [10, 18] | Plant response rating, Wheat, Spring [10, 21] | Plant response rating (scale of 0 to 100), Barley, Winter ([14]; Preemergence, 31 g ai/ha) | Plant response rating, Barley, Winter [14, 18] | Plant response rating, Barley, Winter [14, 19] | Barley, Winter plant response rating [14, 20]
95: Plant response rating, Pigweed [2, 17] | Plant response rating, Chickweed [4, 21] | Plant response rating, Lambsquarters [5, 16] | Plant response rating (scale of 0 to 100), Field Poppy ([6]; Preemergence, 31 g ai/ha) | Plant response rating, Field Poppy [6, 18] | Plant response rating, Field Poppy [6, 19] | Plant response rating, Field Poppy [6, 21] | Plant response rating, Oat, Wild [8, 19] | Plant response rating, Foxtail, Green [9, 16] | Plant response rating, Windgrass [12, 19] | Plant response rating, Chamomile [13, 19]
40: Plant response rating, Mustard, Wild [1, 16] | Plant response rating, Mustard, Wild [1, 20]
25: Mustard, Wild plant response rating [1, 15] | Plant response rating (scale of 0 to 100), Pigweed ([2]; Preemergence, 31 g ai/ha) | Plant response rating, Wheat, Spring [10, 17] | Plant response rating, Windgrass [12, 21]
100: Plant response rating, Pigweed [2, 20] | Plant response rating, Chickweed [4, 16] | Plant response rating, Chickweed [4, 17] | Plant response rating, Chickweed [4, 18] | Plant response rating, Chickweed [4, 19] | Plant response rating, Chickweed [4, 20] | Plant response rating, Lambsquarters [5, 17] | Plant response rating, Lambsquarters [5, 19] | Plant response rating, Lambsquarters [5, 20] | Plant response rating, Field Poppy [6, 16] | Plant response rating, Field Poppy [6, 17] | Plant response rating, Field Poppy [6, 20] | Plant response rating, Oat, Wild [8, 17] | Plant response rating, Oat, Wild [8, 20] | Plant response rating, Foxtail, Green [9, 17] | Plant response rating, Foxtail, Green [9, 18] | Plant response rating, Foxtail, Green [9, 19] | Plant response rating, Foxtail, Green [9, 20] | Plant response rating, Windgrass [12, 20] | Plant response rating, Chamomile [13, 17] | Plant response rating, Chamomile [13, 18] | Plant response rating, Chamomile [13, 20]
50: Plant response rating, Pigweed [2, 18] | Plant response rating, Bromegrass, Downy [11, 18]
90: Plant response rating, Blackgrass [3, 17] | Blackgrass plant response rating [3, 20] | Plant response rating (scale of 0 to 100), Chickweed ([4]; Preemergence, 31 g ai/ha) | Lambsquarters plant response rating [5, 15] | Plant response rating, Lambsquarters [5, 21] | Plant response rating, Oat, Wild [8, 16] | Plant response rating, Oat, Wild [8, 18] | Plant response rating, Chamomile [13, 16]
85: Plant response rating, Pigweed [2, 16] | Plant response rating, Blackgrass [3, 19] | Chickweed plant response rating [4, 15]
80: Plant response rating, Pigweed [2, 21] | Plant response rating, Blackgrass [3, 16] | Plant response rating (scale of 0 to 100), Oat, Wild ([8]; Preemergence, 31 g ai/ha) | Plant response rating, Oat, Wild [8, 21] | Plant response rating, Foxtail, Green [9, 21] | Plant response rating (scale of 0 to 100), Chamomile ([13]; Preemergence, 31 g ai/ha) | Plant response rating, Chamomile [13, 21]
60: Plant response rating, Lambsquarters [5, 18] | Plant response rating (scale of 0 to 100), Windgrass ([12]; Preemergence, 31 g ai/ha)
10: Plant response rating, Wheat, Winter [7, 17] | Plant response rating, Wheat, Spring [10, 16] | Plant response rating, Wheat, Spring [10, 20] | Bromegrass, Downy plant response rating [11, 15] | Plant response rating, Bromegrass, Downy [11, 16] | Plant response rating (scale of 0 to 100), Bromegrass, Downy ([11]; Preemergence, 31 g ai/ha) | Plant response rating, Bromegrass, Downy [11, 21] | Windgrass plant response rating [12, 15] | Plant response rating, Barley, Winter [14, 15] | Plant response rating, Barley, Winter [14, 17] | Plant response rating, Barley, Winter [14, 21]
55: Plant response rating, Mustard, Wild [1, 17] | Oat, Wild plant response rating [8, 15] | Plant response rating, Windgrass [12, 16]
35: Plant response rating, Mustard, Wild [1, 21]
15: Plant response rating (scale of 0 to 100), Lambsquarters ([5]; Preemergence, 31 g ai/ha) | Plant response rating, Barley, Winter [14, 16]
75: Plant response rating, Blackgrass [3, 18] | Field Poppy plant response rating [6, 15] | Plant response rating, Windgrass [12, 18]
20: Plant response rating, Bromegrass, Downy [11, 17]
5: Plant response rating, Mustard, Wild [1, 19] | Plant response rating, Wheat, Winter [7, 16] | Plant response rating, Wheat, Winter [7, 20] | Plant response rating, Wheat, Spring [10, 19]
65: Plant response rating, Pigweed [2, 19] | Blackgrass plant response rating [3, 15] | Plant response rating (scale of 0 to 100), Blackgrass ([3]; Preemergence, 31 g ai/ha) | Plant response rating (scale of 0 to 100), Foxtail, Green ([9]; Preemergence, 31 g ai/ha) | Plant response rating, Bromegrass, Downy [11, 19]
70: Pigweed plant response rating [2, 15] | Plant response rating, Blackgrass [3, 21] | Foxtail, Green plant response rating [9, 15] | Plant response rating, Bromegrass, Downy [11, 20] | Plant response rating, Windgrass [12, 17] | Chamomile plant response rating [13, 15]
